Legend:
[1] = Stability in saline / radiolabeling solution at room temperature (RCP by radio-HPLC); type: physicochemical; settings: 4 h
Protocol: (§1) The complexes were determined by ITLC/SG of the ACD system and radio-HPLC. The ITLC/SG trip was cut into 10 equal parts, and radioactive counting of ITLC strips was determined by a γ-counter. ITLC results of both complexes were as follows: in ACD solution, [^99mTc]Tc-CN5FA and [^99mTc]Tc-CNPFA stayed at the origin (Rf = 0–0.1), while ^99mTcO4^− (Rf = 0.9–1.0) and ^99mTcO2·nH2O (Rf = 0.8–1.0) were moved to the front. Radio-HPLC was analyzed by a mobile phase system consisting of 0.1% TFA water (solvent A) and 0.1% TFA acetonitrile (solvent B) with a gradient of 0−2 min 10% B, 2−5 min 10%−90% B, 10−20 min 90% B, and 20−25 min 90%−10% B (system B) at a flow rate of 1 mL/min. All experiments were performed in triplicate.
(§2) The stability of [^99mTc]Tc-CN5FA and [^99mTc]Tc-CNPFA in vitro was evaluated by measuring the RCP of the complexes. Stability in saline was achieved by holding the solution at room temperature for 4 h. Stability in the serum was achieved by mixing 100 μL of [^99mTc]Tc-CN5FA or [^99mTc]Tc-CNPFA with 200 μL of mouse serum at 37 °C for 4 h. After precipitation using acetonitrile, centrifugation, and concentration, the solutions were analyzed by radio-HPLC.

[2] = Stability in mouse serum at 37 °C (RCP by radio-HPLC); type: in vitro ADME; settings: 4 h
Protocol: as §1, §2

[3] = Partition coefficient, 1-octanol / phosphate buffer pH 7.4; type: physicochemical; settings: 1-octanol / phosphate buffer 0.025 M
Protocol: The partition coefficient was measured as follows: 1.9 mL of phosphate buffer solution (0.025 M, pH 7.4), 2.0 mL of 1-octanol, and 0.1 mL of ^99mTc-CN5FA or ^99mTc-CNPFA solution were added to the centrifuge tube, and the sample was swirled for 5 min and centrifuged for 5 min (3000 r/min). Then, the radioactivity counts of the two phases were measured by taking 0.1 mL from the organic phase and the water phase. The partition coefficient P was calculated. The final partition coefficient was expressed as log P ± SD.

[4] = target: T1, folate receptor (KB cells) (Homo sapiens, UniProt P15328); test: In vitro competitive binding with KB cells; settings: 37 °C, 2 h, competitive binding with inhibitor
T1 construct: endogenous in cells; host or cells: KB cells
Protocol: KB cells were cultured with FFRPMI 1640 medium 24 h in advance on a 48-well plate with 5 × 10^4 cells per well. The labeling solution was diluted to 5 μCi/mL with the same medium after growing, and the inhibitor was prepared at different concentrations. The 48-well plates were divided into eight groups, and each group was incubated with 100 μL of inhibitor solution, 100 μL of diluted labeled solution (5 μCi/mL), and 200 μL of medium at 37 °C for 2 h.
After removing the cell plate from the incubator, the medium was removed, and the cells were washed with PBS (0.1 M, pH 7.4). The washed cells were lysed with NaOH (1 M) for 5 min. Pyrolysates were collected in the hoses, and the radioactivity count of each hose was measured by a γ-counter. The data were analyzed with GraphPad Prism 5.0 and nonlinearly fit to the log IC50 ± SD value.

KB tumor-bearing mice [5] = test: Biodistribution study in KB tumor-bearing mice; type: in vivo, BALB/c nude mice; settings: for Tumor uptake: KB tumor
Protocol: The biodistribution experiments were divided into normal groups and inhibition groups (n = 3), in which the inhibition group was injected with inhibitor (about 4 × 10^4 µg/kg) 30 min in advance. The KB tumor-bearing mice were decapitated 30 and 120 min after the tail vein injection of 0.1 mL labeled solution (about 7.4 × 10^4 Bq). The heart, liver, lung, kidney, spleen, stomach, bone, muscle, intestine, tumor, blood, and other related tissues and organs were wiped clean and weighed, and the radioactivity count was measured. Each tissue per gram of injection dose (%ID/g) was calculated.

KB tumor-bearing mice [6] = test: SPECT/CT imaging study in KB tumor-bearing mice; type: in vivo, BALB/c nude mice; settings: 2 h post injection, about 18.5 MBq i.v.
Protocol: The SPECT/CT imaging experiments were also divided into a normal group and an inhibition group (n = 3). The labeled solution (about 18.5 MBq) was injected into the tail vein of nude mice bearing KB tumor. The inhibition group was injected with 100 µg FA (about 4 × 10^4 µg/kg) 30 min in advance. After 2 h, the SPECT/CT scan was performed in anesthetized mice by using 1.5% isoflurane. The SPECT acquisition (peak value 140 keV, 20% width, 90° rotation, MMP 919 Collimator) was performed after 4 min of CT scanning (512 views, 2 × 2 binding, 75 kV, exposure time 230 ms). SPECT/CT images were made using HiSPECT software and vivoquant 2.5 software.

[7] = 2 h p.i., block: FA about 4 × 10^4 µg/kg 30 min in advance

T1 sequence (P15328 25-257): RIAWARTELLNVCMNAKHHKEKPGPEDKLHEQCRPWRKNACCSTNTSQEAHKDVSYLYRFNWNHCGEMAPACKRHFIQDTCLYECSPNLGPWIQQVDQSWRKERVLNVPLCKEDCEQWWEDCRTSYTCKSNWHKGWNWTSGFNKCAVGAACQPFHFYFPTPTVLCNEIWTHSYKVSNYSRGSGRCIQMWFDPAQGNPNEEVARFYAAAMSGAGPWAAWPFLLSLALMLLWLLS

[99Tc+].[C-]#[N+]CCOCCOCCOCCOCCC(=O)NCCNC(=O)CC[C@H](NC(=O)c1ccc(NCc2cnc3nc(N)[nH]c(=O)c3n2)cc1)C(=O)O.[C-]#[N+]CCOCCOCCOCCOCCC(=O)NCCNC(=O)CC[C@H](NC(=O)c1ccc(NCc2cnc3nc(N)[nH]c(=O)c3n2)cc1)C(=O)O.[C-]#[N+]CCOCCOCCOCCOCCC(=O)NCCNC(=O)CC[C@H](NC(=O)c1ccc(NCc2cnc3nc(N)[nH]c(=O)c3n2)cc1)C(=O)O.[C-]#[N+]CCOCCOCCOCCOCCC(=O)NCCNC(=O)CC[C@H](NC(=O)c1ccc(NCc2cnc3nc(N)[nH]c(=O)c3n2)cc1)C(=O)O.[C-]#[N+]CCOCCOCCOCCOCCC(=O)NCCNC(=O)CC[C@H](NC(=O)c1ccc(NCc2cnc3nc(N)[nH]c(=O)c3n2)cc1)C(=O)O.[C-]#[N+]CCOCCOCCOCCOCCC(=O)NCCNC(=O)CC[C@H](NC(=O)c1ccc(NCc2cnc3nc(N)[nH]c(=O)c3n2)cc1)C(=O)O [[^99mTc]Tc-CNPFA]
RCP after incubation [1]: more than 95% | RCP after incubation [2]: more than 95% | log P [3]: −2.28 ± 0.02 | IC50 [4]: 3.8 ± 0.07 nM | T/B (tumor/blood ratio) (KB tumor-bearing mice [5]; 0.5 h p.i.): 1.02 | T/M (tumor/muscle ratio) (KB tumor-bearing mice [5]; 0.5 h p.i.): 2.82 | Blood uptake (KB tumor-bearing mice [5]; 0.5 h p.i., i.v., n = 3): 4.08 ± 0.54 %ID/g | Bone uptake (KB tumor-bearing mice [5]; 0.5 h p.i., i.v., n = 3): 1.77 ± 0.06 %ID/g | Heart uptake (KB tumor-bearing mice [5]; 0.5 h p.i., i.v., n = 3): 1.92 ± 0.06 %ID/g | Intestines uptake (KB tumor-bearing mice [5]; 0.5 h p.i., i.v., n = 3): 4.98 ± 1.57 %ID/g | Kidney uptake (KB tumor-bearing mice [5]; 0.5 h p.i., i.v., n = 3): 81.30 ± 4.69 %ID/g | Liver uptake (KB tumor-bearing mice [5]; 0.5 h p.i., i.v., n = 3): 15.84 ± 1.19 %ID/g | Lung uptake (KB tumor-bearing mice [5]; 0.5 h p.i., i.v., n = 3): 4.01 ± 0.30 %ID/g | Muscle uptake (KB tumor-bearing mice [5]; 0.5 h p.i., i.v., n = 3): 1.48 ± 0.07 %ID/g | Spleen uptake (KB tumor-bearing mice [5]; 0.5 h p.i., i.v., n = 3): 3.65 ± 0.72 %ID/g | Stomach uptake (KB tumor-bearing mice [5]; 0.5 h p.i., i.v., n = 3): 6.67 ± 0.73 %ID/g | Thyroid uptake (KB tumor-bearing mice [5]; 0.5 h p.i., i.v., n = 3): 0.08 ± 0.02 %ID | T/B (tumor/blood ratio) (KB tumor-bearing mice [5]; 2 h p.i.): 1.73 | T/M (tumor/muscle ratio) (KB tumor-bearing mice [5]; 2 h p.i.): 3.01 | Blood uptake (KB tumor-bearing mice [5]; [7]): 1.97 ± 0.34 %ID/g | Bone uptake (KB tumor-bearing mice [5]; [7]): 1.02 ± 0.10 %ID/g | Heart uptake (KB tumor-bearing mice [5]; [7]): 0.81 ± 0.12 %ID/g | Intestines uptake (KB tumor-bearing mice [5]; [7]): 1.70 ± 0.22 %ID/g | Kidney uptake (KB tumor-bearing mice [5]; [7]): 37.60 ± 2.46 %ID/g | Liver uptake (KB tumor-bearing mice [5]; [7]): 10.88 ± 1.03 %ID/g | Lung uptake (KB tumor-bearing mice [5]; [7]): 2.11 ± 0.28 %ID/g | Muscle uptake (KB tumor-bearing mice [5]; [7]): 0.51 ± 0.09 %ID/g | Spleen uptake (KB tumor-bearing mice [5]; [7]): 3.30 ± 0.66 %ID/g | Stomach uptake (KB tumor-bearing mice [5]; [7]): 2.18 ± 0.22 %ID/g | Thyroid uptake (KB tumor-bearing mice [5]; [7]): 0.05 ± 0.01 %ID | Blood uptake (KB tumor-bearing mice [5]; 2 h p.i., i.v., n = 3): 1.46 ± 0.03 %ID/g | Bone uptake (KB tumor-bearing mice [5]; 2 h p.i., i.v., n = 3): 0.79 ± 0.11 %ID/g | Heart uptake (KB tumor-bearing mice [5]; 2 h p.i., i.v., n = 3): 1.30 ± 0.09 %ID/g | Intestines uptake (KB tumor-bearing mice [5]; 2 h p.i., i.v., n = 3): 1.60 ± 0.24 %ID/g | Kidney uptake (KB tumor-bearing mice [5]; 2 h p.i., i.v., n = 3): 80.25 ± 1.23 %ID/g | Liver uptake (KB tumor-bearing mice [5]; 2 h p.i., i.v., n = 3): 10.39 ± 0.23 %ID/g | Lung uptake (KB tumor-bearing mice [5]; 2 h p.i., i.v., n = 3): 2.04 ± 0.06 %ID/g | Muscle uptake (KB tumor-bearing mice [5]; 2 h p.i., i.v., n = 3): 0.84 ± 0.04 %ID/g | Spleen uptake (KB tumor-bearing mice [5]; 2 h p.i., i.v., n = 3): 2.85 ± 0.26 %ID/g | Stomach uptake (KB tumor-bearing mice [5]; 2 h p.i., i.v., n = 3): 3.65 ± 0.75 %ID/g | Thyroid uptake (KB tumor-bearing mice [5]; 2 h p.i., i.v., n = 3): 0.06 ± 0.01 %ID | Tumor uptake (KB tumor-bearing mice [5]; 0.5 h p.i., i.v., n = 3): 4.18 ± 0.36 %ID/g | Tumor uptake (KB tumor-bearing mice [5]; [7]): 1.62 ± 0.08 %ID/g | Tumor uptake (KB tumor-bearing mice [5]; 2 h p.i., i.v., n = 3): 2.53 ± 0.12 %ID/g | Visualization of tumor lesions by SPECT/CT (KB tumor-bearing mice [6]): clearly visualized

— publication PMC8348780, “Preparation and Evaluation of Novel Folate Isonitrile ^99mTc Complexes as Potential Tumor Imaging Agents to Target Folate Receptors” (Molecules, 2021)
